“Also recorded” adds a separate entry of the source.
Tests used:
[1] = test system: immortalized human mesothelial Met5A cells; assay: Cell viability by trypan blue exclusion assay; assay type: cell-based; conditions: for IC50: Homo sapiens, MeT-5A, Met5A cells, read-out: IC50 (toxicity, cell viability)
Description: (§1) ZL34 and Met5A cells were plated in sterile 96-well microtiter plates at 5 × 10^4cells/ml and grown in Dulbecco's modified Eagle's medium (DMEM), provided by Sigma-Aldrich and supplemented with 5% fetal bovine serum. Cultures were maintained in a humidified atmosphere with 5% CO2, at 37°C. Solutions at the appropriate concentration of each compound were added, and then cells were grown for 24, 48, 72 and 96 h. After treatment, the drug was removed by washing the cells twice with phosphate buffered saline. The cells were then trypsinized (100 μl Trypsin-EDTA × 1 (Biosera) solution/well, 10 min at 37°C), mixed with 1 ml DMEM and collected by centrifugation at 3000 × g for 5 min. Cell viabilities were determined by the trypan blue exclusion assay, using a TC10 automated cell counter (BIO-RAD). Viable cells were expressed as a percentage of total cells.
(§2) Figure S5. Toxicity assays in ZL34 and Met5A cell lines. ZL34 or Met5A cells were plated in sterile 96-well microtiter plates at 5×10^4 cells/ml and grown in DMEM, supplemented with 5% fetal bovine serum. Cultures were maintained in a humidified atmosphere with 5% CO2, at 37°C. Solutions at the appropriate concentration of each compound were added, and then cells were grown for 24 h, 72 h and 96 h. After treatment, CAM or compound 4 was removed by washing the cells twice with PBS. The cells were then trypsinized, mixed with 1 ml DMEM and collected by centrifugation at 3,000×g for 5 min. Cell viabilities were determined by the trypan blue exclusion assay, using a TC10 automated cell counter (BIO-RAD). Viable cells were expressed as a percentage of total cells. SPD, spermidine.

[2] = test system: human mesothelioma cells ZL34; assay: Cell viability by trypan blue exclusion assay; assay type: cell-based; conditions: for IC50: Homo sapiens, ZL34 cells, read-out: IC50 (toxicity, cell viability)
Description: as §1, §2

[3] = test system: Jurkat (T-cell acute lymphoblastic leukemia) cells; assay: Toxicity assay in leukemic cell line (cell counting, Annexin V flow cytometry); assay type: cell-based, human; conditions: for sensitivity of cells / inhibition of cell proliferation (cell counting): increasing concentrations
Description: (§3) Human leukemic cell lines, HS-Sultan (Burkitt's lymphoma) (European Collection of Cell Cultures, Salisbury, UK), Jurkat (T-cell acute lymphoblastic leukemia) and U937 (histiocytic lymphoma) (American Type Culture Collection, Manassas, USA), were adjusted to 1 × 10^9 cells/l in RPMI-1640 medium containing 1% Penicillin/Streptomycin and 10% fetal bovine serum and grown in triplicate in the presence or absence of CAM or PA–CAM conjugates for 4 days at 37°C, under a humidified 5% CO2 atmosphere. The medium was changed after 2 days of exposure; CAM or PA-CAM addition was repeated after medium change to keep the appropriate drug concentration. Aliquots were collected daily and counted in a CELL-DYN 3700 Hematology Analyzer. For cell necrosis and apoptosis assays, samples (10^6 cells) were collected daily and determined using the Annexin V-PE Apoptosis Detection Kit I (BD Pharmingen) for flow cytometry ([29]), as described by the manufacturer. Flow cytometry data were analyzed using the FlowJo flow cytometry analysis software. Necrotic and apoptotic cells were expressed as a percentage of total cells.
(§4) Figure S2. Toxicity assays in leukemic cell lines. Human leukemic cell lines, HS-Sultan, Jurkat, and U937 were adjusted to 1×10^9 cells/l in RPMI-1640 medium containing 1% Penicillin/Streptomycin and 10% fetal bovine serum and grown in triplicate in the presence or absence of CAM or compound 4 at the indicated concentrations for 5 days at 37°C, under a humidified 5% CO2 atmosphere. Aliquots were collected daily and counted in a CELL-DYN 3700 Hematology Analyzer.
Figure S4. Toxicity assays in Jurkat cells. Jurkat cells were adjusted to 1×10^9 cells/l in RPMI-1640 medium containing 1% Penicillin/Streptomycin and 10% fetal bovine serum and grown in triplicate in the presence or absence of CAM or compound 4 at the indicated concentrations for 4 days at 37°C, under a humidified 5% CO2 atmosphere. Cell necrosis and apoptosis assays were performed as described in Figure S3. Necrotic and apoptotic cells were expressed as a percentage of total cells.

[4] = test system: HS-Sultan (Burkitt's lymphoma) cells; assay: as above; assay type: cell-based, human; conditions: for induction of apoptosis (flow cytometry) / induction of necrosis (flow cytometry): 60 μM; for sensitivity of cells / inhibition of cell proliferation (cell counting): increasing concentrations
Description: as §3, §4
Figure S3. Toxicity assays in HS-Sultan cells. HS-Sultan cells were adjusted to 1×10^9 cells/l in RPMI-1640 medium containing 1% Penicillin/Streptomycin and 10% fetal bovine serum and grown in triplicate in the presence or absence of CAM or compound 4 at the indicated concentrations for 4 days at 37°C, under a humidified 5% CO2 atmosphere. For cell necrosis and apoptosis assays, samples (10^6 cells) were collected daily and determined using the Annexin V-PE Apoptosis Detection Kit I for flow cytometry. Non-viable and necrotic cells were expressed as a percentage of total cells.

[5] = test system: E. coli (A2503C) TA531 cells with pKK35 plasmid, mutated 23S rRNA; assay: Growth inhibition of bacterial cell cultures, CAM-resistant mutant; assay type: cell-based; conditions: for IC50: Escherichia coli, read-out: IC50 (inhibit the growth by half)
Source text: (§5) CAM free base [D-(-)threo-1-(p-nitrophenyl)-2-amino-1,3-propanediol], puromycin dihydrochloride, tRNA^Phe from E. coli, dimethyl sulfate (DMS), DMS stop solution and tRNA^Phe from E. coli were purchased from Sigma-Aldrich. Kethoxal and 1-cyclohexyl-3-(2-morpholinoethyl)-carbodiimide metho-p-toluene sulfate (CMCT) were from MP Biomedicals and Fluka Biochemicals, respectively. AMV reverse transcriptase was supplied by Roche, dNTPs by HT Biotechnology, and ddNTPs by Jena Bioscience. L-[2,3,4,5,6 -^3H]Phenylalanine was from Amersham Biosciences and [α-^32P]ATP from Izotop. Cellulose nitrate filters (type HA; 0.45 μm pore size) were from Millipore Corp. Details in experimental procedures of synthesis and physical and spectra data for the synthesized compounds will be published elsewhere. […] The mesothelioma cell line ZL34 and its immortalized counterpart cell line Met5A, were kindly provided by Prof. G. Stathopoulos (University of Patras).
(§6) S. aureus or E. coli cells (400 μl of a 0.700 OD560 preculture) containing wild-type or mutant ribosomes were added in 3.6 ml of LB (Luria Broth) medium and grown at 37°C in the presence or absence of CAM or PA–CAM conjugates until the optical density of the control culture (grown in the absence of drug) reached the value 0.700 at 560 nm. From the growth curves, the IC50 value for each strain was estimated as the concentration of the drug that is required to inhibit the growth by half.

[6] = test system: E. coli (A2058G) TA531 cells with pKK35 plasmid, mutated 23S rRNA; assay: as above; assay type: cell-based; conditions: for IC50: Escherichia coli, read-out: IC50 (inhibit the growth by half)
Source text: as §5, §6

O=C(N[C@H](CO)[C@H](O)c1ccc([N+](=O)[O-])cc1)C(Cl)Cl [CAM, Chloramphenicol]
IC50 [1]: > 300 µM
IC50 [2]: > 300 µM
rescue by exogenously added spermidine ([2]; ZL34 cells treated with 300 μM compound, 3 mM spermidine): no rescue was observed
induction of apoptosis (flow cytometry) ([3]; 60 μM): failed to induce apoptosis
induction of necrosis (flow cytometry) ([3]; 60 μM): failed to induce necrosis/apoptosis
sensitivity of cells / inhibition of cell proliferation (cell counting) [3]: sensitive
induction of apoptosis (flow cytometry) [4]: failed to induce apoptosis
induction of necrosis (flow cytometry) [4]: induced necrosis
sensitivity of cells / inhibition of cell proliferation (cell counting) [4]: sensitive
IC50 [5]: 24.7 ± 2.3 µM
IC50 [6]: 15.5 ± 1.3 µM

NCCCN(CCCCN(Cc1ccccc1)Cc1ccccc1)C(=O)CCC(=O)N[C@H](CO)[C@H](O)c1ccc([N+](=O)[O-])cc1 [Compound 4]
IC50 [1]: 60 ± 5 µM
rescue by exogenously added spermidine ([1]; Met5A cells exposed to an IC50 dose of the compound, spermidine at 10 × IC50): recover little of the lost viability
IC50 [2]: 25 ± 3 µM
viability after rescue by exogenously added spermidine ([2]; ZL34 cells exposed to an IC50 dose of the compound, spermidine at 10 × IC50): ~95%
induction of necrosis (flow cytometry) ([3]; 60 μM): induced necrosis
sensitivity of cells / inhibition of cell proliferation (cell counting) [3]: sensitive; also recorded: more effective than CAM
induction of apoptosis (flow cytometry) [4]: apoptosis to HS-Sultan cells
induction of necrosis (flow cytometry) [4]: induced necrosis
sensitivity of cells / inhibition of cell proliferation (cell counting) [4]: sensitive; also recorded: more effective than CAM
IC50 superiority over CAM ([5]; E. coli A2503C mutant): ~2 fold
IC50 [5]: 9.4 ± 0.9 µM
IC50 superiority over CAM ([6]; E. coli A2058G mutant): ~2 fold
IC50 [6]: 9.4 ± 1 µM

Reference: article PMC4117768, “Conjugation with polyamines enhances the antibacterial and anticancer activity of chloramphenicol” (Nucleic Acids Research, 2014)
